Experimental findings from patent US9682976B2, “Protein kinase C inhibitors and uses thereof” (Rigel Pharmaceuticals, Inc., priority 2012, dated 2017) are described below.

The experiment relates to PKC mediated IL-2 production. The experiment in a line: IL-2 ELISA, human primary T cell, anti CD3+CD28+. It is filed as cell-based. The settings on record: human primary T cells stimulated with αCD3 and αCD28, 24 hours. As to the method: Compounds 1-328 were tested in a whole cell functional assay for PKC mediated IL-2 production as follows. Human primary T cell isolation and culture: Human primary T cells were prepared as follows. Whole blood was obtained from a healthy volunteer, mixed 1:1 with PBS, layered on to Ficoll Hypaque (Amersham Pharmacia Biotech, Piscataway, N.J., Catalog #17-1440-03) in 2:1 blood/PBS:ficoll ratio and centrifuged for 30 minutes at 4° C. at 1750 rpm. The cells at the serum: ficoll interface were recovered and washed twice with 5 volumes of PBS. These freshly isolated human peripheral blood mononuclear cells were cultured in Yssel's medium containing 40 U/ml IL2 in a flask pre-coated with […] αCD3 and 5 μg/ml αCD28 (Anti-Human CD3, BD Pharmingen Catalog #555336, Anti-Human CD28, Beckman Coulter Catalog #IM1376). The cells were stimulated for 3-4 days, then transferred to a fresh flask and maintained in RPMI (RPMI-1640 with L-Glutamine; Mediatech, Inc., Herndon Va., cat. #10-040-CM) with 10% FBS and 40 U/ml IL-2. The primary T-cells were then washed twice with PBS to remove the IL-2.
Primary T cell stimulation and IL2 ELISA: Human primary T cells (100,000 cells per well) were pre-incubated with or without test compound in Yssel's medium for 1 hour at 37° C. Cells were then stimulated by transferring them to round-bottom 96-well plates pre-coated with […] αCD3 and 5 μg/ml αCD28. For counter assay, cells were instead stimulated by adding 8× stock solutions of PMA and ionomycin in Yssels (for final concentrations of 0.5 ng/ml PMA and 0.1 uM ionomycin, both from Calbiochem). Cells were incubated at 37° C. for 24 hours before 100 μL supernatants were harvested for quantification of IL-2 by ELISA using Human IL-2 Duoset ELISA Kit from R and D Systems, Cat. # DY202E.

Usually EC50 stands for the concentration needed to bring the measured effect to its halfway point. A higher EC50 goes with lower potency in that assay.

The compound `Cn1nnn(-c2cc(Nc3ncc(F)c(N[C@H]4C[C@@H]5CC(F)(F)CN5C(C)(C)C4)n3)c(F)cc2C2CC2)c1=O` [Compound 42, 1-(5-(4-((7S,8aR)-2,2-difluoro-octahydro-5,5-dimethylindolizin-7-ylamino)-5-fluoropyrimidin-2-ylamino)-2-cyclopropyl-4-fluorophenyl)-4-methyl-1H-tetrazol-5(4H)-one] showed an EC50 (Homo sapiens, T-cell, 24 h) of 1000 to 10000 nM. On the same count and under the same terms, as for `CC1(C)C[C@@H](Nc2nc(Nc3cc(-n4cnnn4)c(C4CC4)cc3F)ncc2F)C[C@@H]2CC(F)(F)CN21` [Compound 43, N^2-(4-cyclopropyl-2-fluoro-5-(1H-tetrazol-1-yl)phenyl)-5-fluoro-N^4-((7S,8aR)-2,2-difluoro-octahydro-5,5-dimethylindolizin-7-yl)pyrimidine-2,4-diamine], the figure is 1000 to 10000 nM. Consider `Cc1ccc(Nc2ncc(F)c(N[C@H]3C[C@@H]4CC(F)(F)CN4C(C)(C)C3)n2)cc1C#N` [Compound 44, 5-(4-((7S,8aR)-2,2-difluoro-octahydro-5,5-dimethylindolizin-7-ylamino)-5-fluoropyrimidin-2-ylamino)-2-methylbenzonitrile], for which, for the setting “Homo sapiens, T-cell, 24 h”, the EC50 fell in the range of 1000 to 10000 nM. With `Cn1nnn(-c2cc(Nc3ncc(F)c(N[C@@H]4C[C@@H]5CC(F)(F)CN5C(C)(C)C4)n3)c(F)cc2C2CC2)c1=O` [Compound 45, 1-(5-(4-((7R,8aR)-2,2-difluoro-octahydro-5,5-dimethylindolizin-7-ylamino)-5-fluoropyrimidin-2-ylamino)-2-cyclopropyl-4-fluorophenyl)-4-methyl-1H-tetrazol-5(4H)-one], the concentration giving a half-maximal response (EC50) (Homo sapiens, T-cell, 24 h) is 1000 to 10000 nM.

`CC1(C)C[C@H](Nc2nc(Nc3cc(-n4cnnn4)c(C4CC4)cc3F)ncc2F)C[C@@H]2CC(F)(F)CN21` [Compound 46, N^2-(4-cyclopropyl-2-fluoro-5-(1H-tetrazol-1-yl)phenyl)-5-fluoro-N^4-((7R,8aR)-2,2-difluoro-octahydro-5,5-dimethylindolizin-7-yl)pyrimidine-2,4-diamine]: the concentration for a half-maximal effect (EC50) (Homo sapiens, T-cell, 24 h) fell in the range of 500 to 1000 nM. As for `Cn1nnn(-c2cc(Nc3ncc(F)c(NC4CC5CCCN5C(C)(C)C4)n3)ccc2OC2CCOCC2)c1=O` (stereo not drawn) [Compound 51, 1-(5-(5-fluoro-4-(octahydro-5,5-dimethylindolizin-7-ylamino)pyrimidin-2-ylamino)-2-(tetrahydro-2H-pyran-4-yloxy)phenyl)-4-methyl-1H-tetrazol-5(4H)-one], under “Homo sapiens, T-cell, 24 h”, the EC50 lay within 100 to 500 nM. Still for that read-out and setting: as for `CC1(C)CC(Nc2nc(Nc3ccc(OC4COC4)c(C#N)c3)ncc2F)CC2CCCN21` (stereo not drawn) [Compound 63, 5-(5-Fluoro-4-(octahydro-5,5-dimethylindolizin-7-ylamino)pyrimidin-2-ylamino)-2-(oxetan-3-yloxy)benzonitrile], the figure is 100 to 500 nM; as for `Cn1nnn(-c2cc(Nc3ncc(F)c(N[C@@H]4C[C@@H]5C[C@@H](F)CN5C(C)(C)C4)n3)c(F)cc2C2CC2)c1=O` [Compound 64, 1-(5-(4-((2R,7R,8aR)-2-fluoro-octahydro-5,5-dimethylindolizin-7-ylamino)-5-fluoropyrimidin-2-ylamino)-2-cyclopropyl-4-fluorophenyl)-4-methyl-1H-tetrazol-5(4H)-one], 100 to 500 nM.

For the setting “Homo sapiens, T-cell, 24 h”, `Cn1nnn(-c2cc(Nc3ncc(F)c(N[C@H]4C[C@@H]5C[C@@H](F)CN5C(C)(C)C4)n3)c(F)cc2C2CC2)c1=O` [Compound 65, 1-(5-(4-((2R,7S,8aR)-2-fluoro-octahydro-5,5-dimethylindolizin-7-ylamino)-5-fluoropyrimidin-2-ylamino)-2-cyclopropyl-4-fluorophenyl)-4-methyl-1H-tetrazol-5(4H)-one] showed an EC50 of 1000 to 10000 nM. For the compound `Cn1nnn(-c2cc(Nc3ncc(F)c(N[C@@H]4C[C@@H]5C[C@H](F)CN5C(C)(C)C4)n3)c(F)cc2C2CC2)c1=O` [Compound 67, 1-(5-(4-((2S,7R,8aR)-2-fluoro-octahydro-5,5-dimethylindolizin-7-ylamino)-5-fluoropyrimidin-2-ylamino)-2-cyclopropyl-4-fluorophenyl)-4-methyl-1H-tetrazol-5(4H)-one], under “Homo sapiens, T-cell, 24 h”, the EC50 was 100 to 500 nM. `Cn1nnn(-c2cc(Nc3ncc(F)c(N[C@@H]4C[C@@H]5C[C@@H](O)CN5C(C)(C)C4)n3)c(F)cc2C2CC2)c1=O` [Compound 68, 1-(5-(4-((2R,7R,8aR)-2-hydroxy-octahydro-5,5-dimethylindolizin-7-ylamino)-5-fluoropyrimidin-2-ylamino)-2-cyclopropyl-4-fluorophenyl)-4-methyl-1H-tetrazol-5(4H)-one]: the EC50 (Homo sapiens, T-cell, 24 h) was in the range of 100 to 500 nM. Same read-out and setting: as for `CC1C(Nc2nc(Nc3cc(-n4nnn(C)c4=O)c(C4CC4)cc3F)ncc2F)CC(C)(C)N2CCCC12` (stereo not drawn) [Compound 69, 1-(5-(5-Fluoro-4-(octahydro-5,5,8-trimethylindolizin-7-ylamino)pyrimidin-2-ylamino)-2-cyclopropyl-4-fluorophenyl)-4-methyl-1H-tetrazol-5(4H)-one], the figure is 500 to 1000 nM. As for `Cc1nnnn1-c1cc(Nc2ncc(F)c(NC3CC(C)(C)N4CCCC4C3C)n2)ccc1F` (stereo not drawn) [Compound 70, 5-Fluoro-N2-(4-fluoro-3-(5-methyl-1H-tetrazol-1-yl)phenyl)-N4-(octahydro-5,5,8-trimethylindolizin-7-yl)pyrimidine-2,4-diamine], the EC50 (Homo sapiens, T-cell, 24 h) fell in the range of 1000 to 10000 nM. Take `CC1(C)C[C@H](Nc2nc(Nc3cc(S(F)(F)(F)(F)F)ccc3F)ncc2F)C[C@@H]2CCCN21` [Compound 71]: the EC50 (Homo sapiens, T-cell, 24 h) fell in the range of 500 to 1000 nM. Still for that read-out and setting: then `CC1(C)C[C@H](Nc2nc(Nc3cc(F)cc(S(F)(F)(F)(F)F)c3)ncc2F)C[C@@H]2CCCN21` [Compound 72], with 500 to 1000 nM. `CC(=O)N(C)c1cc(Nc2ncc(F)c(NC3CC(C)(C)N4CCCC4C3C)n2)c(F)cc1C1CC1` (stereo not drawn) [Compound 73] yielded a half-maximal effective concentration (EC50) of 100 to 500 nM. `CC1C(Nc2nc(Nc3cc(N(C)C(=O)N(C)C)c(C4CC4)cc3F)ncc2F)CC(C)(C)N2CCCC12` (stereo not drawn) [Compound 74] had an EC50 of 100 to 500 nM.

The compound `CC1C(Nc2nc(Nc3cc(OC(F)F)c(C4CC4)cc3F)ncc2F)CC(C)(C)N2CCCC12` (stereo not drawn) [Compound 75] had an EC50 of 100 to 500 nM. Same read-out and setting: then `C[C@@H](O)COc1cc(F)c(Nc2ncc(F)c(N[C@@H]3C[C@@H]4CCCN4C(C)(C)C3)n2)cc1-n1nnn(C)c1=O` [Compound 82], with less than 100 nM. As to `Cn1nnn(-c2cc(Nc3ncc(C#N)c(N[C@@H]4C[C@@H]5CCCN5C(C)(C)C4)n3)c(F)cc2OC(C)(C)CO)c1=O` [Compound 84, 4-((7R,8aS)-octahydro-5,5-dimethylindolizin-7-ylamino)-2-(4-(1-hydroxy-2-methylpropan-2-yloxy)-2-fluoro-5-(4,5-dihydro-4-methyl-5-oxotetrazol-1-yl)phenylamino)pyrimidine-5-carbonitrile], the concentration giving a half-maximal response (EC50) (Homo sapiens, T-cell, 24 h) was 100 to 500 nM. With `Cn1nnn(-c2cc(Nc3ncc(F)c(N[C@@H]4C[C@@H]5CCCN5C(C)(C)C4)n3)c(F)cc2OC(C)(C)CO)c1=O` [Compound 85, 1-(2-(1-hydroxy-2-methylpropan-2-yloxy)-5-(4-((7R,8aS)-octahydro-5,5-dimethylindolizin-7-ylamino)-5-fluoropyrimidin-2-ylamino)-4-fluorophenyl)-4-methyl-1H-tetrazol-5(4H)-one], the 50% effective concentration (EC50) (Homo sapiens, T-cell, 24 h) lay within 100 to 500 nM.
